Test results: paper PMC9983306, “Structurally Defined Water‐Soluble Metallofullerene Derivatives towards Biomedical Applications” (Angewandte Chemie (International Ed. in English), 2022)

Assay: T1 relaxivity by NMR inversion-recovery
Type: physicochemical
Conditions: per molecule concentration
Procedure: The T 1 relaxivity values of water‐soluble Gd MBTs were tested on 60 MHz (1.4 T) and 300 MHz (7.1 T) NMR spectrometers (Table S1), together with a representative commercial GBCA gadodiamide (i.e., Omniscan^TM). […] The enhanced contrast was directly visualized on a 1.0 T MRI scanner, with 20 μM and 5 μM 8 d, 8 d′, 8 e, and gadodiamide (Figure 5a), and the imaging contrast is consistent with the measured relaxivity values. The preclusion of ion leakage by the robust EMF cage dictates that the real limiting factor of MBT contrast agents is the toxicity of the MBT structure, not individual Gd^3+ ions, which means the molecular relaxivity of the MBTs is the more appropriate and relevant parameter for clinical evaluations. […]
Dynamic light scatt ering ex periments w ere performed using a Malvern Z etasizer Nano Z S90 instrument w ith a standard laser source (4mW, 633nm), to measure the hydrodynamic s ize of the aggregates formed by the samples in s olution. 1 uM sample concentrations were used for all the samples measured. […]
Samples 8b, 8b′ and 8c (16 µM, or 16800 ppb Lu) were taken in dialysis bags (MWCO = 1kD) and dialyzed against 1 50 mL PBS 1x f or 7 days without changing diasylate (outside solution in the beaker). […] With a detection limit < 0.1 ppb, no Lu3+ ions w ere detected in the three solutions, confirming the cage confinement of the metal ions. […]

## CNC(=O)CN(CCN(CCN(CC(=O)[O-])CC(=O)NC)CC(=O)[O-])CC(=O)[O-].[Gd+3] [gadodiamide]
60 MHz (1.4 T) NMR
  r1 (1.4 T), T1 relaxivity: 4.4 mM⁻¹ s⁻¹
300 MHz (7.1 T) NMR
  r1 (7.1 T), T1 relaxivity: 3.9 mM-1S-1
